± gives the standard deviation of the averaged measurements.
Columns and labels:
LENVATINIB = compound: COc1cc2nccc(Oc3ccc(NC(=O)NC4CC4)c(Cl)c3)c2cc1C(N)=O [LENVATINIB]; experiment: surviving fraction relative to DMSO-only wells; higher = less growth inhibition; conditions: exposure time: 5 days
In short: (§1)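 Log-phase tumour cell lines, 250–500 cells per well in 384-well plates, received inhibitors at 0.5, 1, 5, 10, 50, 100, 500 and 1000 nM continuously for five days, starting 24 hours after seeding. Viability was quantified with CellTiter-Glo luminescence and normalised to the median of DMSO-only wells to give surviving fraction. Three screens were run per line, and a line stayed in only with replicate Pearson r >0.7 and median Z' >0.3.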

VORINOSTAT = compound: O=C(CCCCCCC(=O)Nc1ccccc1)NO [VORINOSTAT]; experiment: as above; conditions: exposure time: 5 days
In short: as §1

Test System	surviving fraction (LENVATINIB; 0.5 nM)	surviving fraction (LENVATINIB; 1 nM)	surviving fraction (LENVATINIB; 5 nM)	surviving fraction (LENVATINIB; 10 nM)	surviving fraction (LENVATINIB; 50 nM)	surviving fraction (LENVATINIB; 100 nM)	surviving fraction (LENVATINIB; 500 nM)	surviving fraction (LENVATINIB; 1000 nM)	surviving fraction (VORINOSTAT; 0.5 nM)	surviving fraction (VORINOSTAT; 1 nM)	surviving fraction (VORINOSTAT; 5 nM)	surviving fraction (VORINOSTAT; 10 nM)	surviving fraction (VORINOSTAT; 50 nM)	surviving fraction (VORINOSTAT; 100 nM)	surviving fraction (VORINOSTAT; 500 nM)	surviving fraction (VORINOSTAT; 1000 nM)
U2OS BONE	1.01 ± 0.038	0.99 ± 0.045	1.04 ± 0.039	1.02 ± 0.027	1.02 ± 0.019	1.02 ± 0.033	0.891 ± 0.051	0.832 ± 0.027	0.934 ± 0.013	1.03 ± 0.015	0.995 ± 0.026	1.01 ± 0.02	1.01 ± 0.016	1.04 ± 0.04	0.909 ± 0.047	0.751 ± 0.051
SKBR3 BREAST	1 ± 0.18	1.08 ± 0.11	1.04 ± 0.15	1.06 ± 0.099	1.05 ± 0.19	1.16 ± 0.11	1.1 ± 0.068	0.944 ± 0.17	1 ± 0.11	0.996 ± 0.15	0.85 ± 0.03	0.915 ± 0.17	0.98 ± 0.13	1.02 ± 0.15	0.433 ± 0.046	0.179 ± 0.046
SAOS2 BONE	1.1 ± 0.024	1.07 ± 0.0063	1.17 ± 0.029	1.16 ± 0.047	1.12 ± 0.046	1.15 ± 0.075	1.062 ± 0.0029	1.011 ± 0.0035	1.09 ± 0.027	1.07 ± 0.047	1.09 ± 0.07	0.997 ± 0.088	1.24 ± 0.021	1.06 ± 0.048	0.91 ± 0.053	0.73 ± 0.017
22RV1 PROSTATE	1.06 ± 0.03	1.05 ± 0.056	1.05 ± 0.059	1.01 ± 0.075	1.05 ± 0.11	0.97 ± 0.031	1.08 ± 0.032	1.06 ± 0.12	0.946 ± 0.09	1.02 ± 0.026	0.987 ± 0.054	0.994 ± 0.034	1.09 ± 0.046	1.03 ± 0.058	1.03 ± 0.051	0.726 ± 0.071
CAL51 BREAST	0.974 ± 0.023	0.975 ± 0.011	0.983 ± 0.011	0.98 ± 0.031	0.973 ± 0.045	0.976 ± 0.022	0.853 ± 0.051	0.755 ± 0.0033	0.956 ± 0.013	0.951 ± 0.056	1.02 ± 0.011	0.906 ± 0.021	1.02 ± 0.024	0.97 ± 0.078	0.65 ± 0.022	0.403 ± 0.01
OSHN BONE	1.11 ± 0.034	1.11 ± 0.044	1.11 ± 0.033	1.11 ± 0.052	1.1 ± 0.02	1.1 ± 0.035	1.1 ± 0.027	1.07 ± 0.011	1.05 ± 0.026	1.04 ± 0.019	1.05 ± 0.022	1.028 ± 0.0032	1.08 ± 0.042	1.08 ± 0.032	1.1 ± 0.022	0.903 ± 0.022
A549 LUNG	1.04 ± 0.067	1.03 ± 0.053	1.04 ± 0.053	1.04 ± 0.061	1.06 ± 0.087	1.03 ± 0.044	1.13 ± 0.073	1.12 ± 0.025	0.961 ± 0.026	0.9313 ± 0.009	0.923 ± 0.062	0.919 ± 0.042	1.04 ± 0.019	1.02 ± 0.061	1.18 ± 0.027	1.116 ± 0.006
SUM149 BREAST	1.07 ± 0.12	1.04 ± 0.061	1.05 ± 0.025	1.02 ± 0.16	1.04 ± 0.076	1.01 ± 0.066	0.992 ± 0.06	0.965 ± 0.084	1.1 ± 0.12	1.03 ± 0.044	1.08 ± 0.047	0.917 ± 0.038	1.06 ± 0.045	1.14 ± 0.016	0.996 ± 0.066	0.71 ± 0.031
SUM44 BREAST	1.01 ± 0.06	1.03 ± 0.054	1.03 ± 0.048	1.04 ± 0.018	1.05 ± 0.044	1.07 ± 0.052	1.03 ± 0.029	1.01 ± 0.015	0.934 ± 0.025	0.954 ± 0.037	0.951 ± 0.0099	1.01 ± 0.086	1.07 ± 0.016	0.917 ± 0.038	0.418 ± 0.031	0.294 ± 0.013
BT549 BREAST	1.1 ± 0.043	1.16 ± 0.27	1.24 ± 0.031	1.11 ± 0.26	1.04 ± 0.15	1.15 ± 0.056	1.11 ± 0.087	1.06 ± 0.11	1.12 ± 0.083	1.14 ± 0.11	1.15 ± 0.029	1.22 ± 0.051	1.12 ± 0.17	1.11 ± 0.068	0.773 ± 0.073	0.534 ± 0.034
YAMATO SYNOVIAL	1.18 ± 0.073	1.15 ± 0.05	1.13 ± 0.12	1.06 ± 0.072	1.1 ± 0.062	1.14 ± 0.13	0.953 ± 0.08	0.949 ± 0.017	1.31 ± 0.099	0.905 ± 0.031	1.19 ± 0.027	0.742 ± 0.072	1.28 ± 0.068	1.16 ± 0.016	0.82 ± 0.026	0.533 ± 0.038
VP229 BREAST	1.29 ± 0.23	1.14 ± 0.17	1.21 ± 0.093	0.969 ± 0.044	1.36 ± 0.17	1.34 ± 0.14	1.47 ± 0.13	1.42 ± 0.081	0.931 ± 0.099	1.04 ± 0.054	1.02 ± 0.11	0.924 ± 0.033	1.1 ± 0.086	1.04 ± 0.022	0.6 ± 0.11	0.352 ± 0.058
SJSA1 BONE	1.04 ± 0.034	1.02 ± 0.034	1.09 ± 0.087	1.09 ± 0.051	1.15 ± 0.014	1.07 ± 0.029	1.03 ± 0.022	0.997 ± 0.015	0.793 ± 0.037	0.946 ± 0.057	0.844 ± 0.049	0.953 ± 0.067	0.844 ± 0.021	0.973 ± 0.059	0.544 ± 0.035	0.672 ± 0.03
SCC90 HEADNECK	1.12 ± 0.056	1.12 ± 0.071	1.15 ± 0.13	1.22 ± 0.093	1.18 ± 0.098	1.17 ± 0.048	1.21 ± 0.085	1.3 ± 0.074	1.13 ± 0.3	0.999 ± 0.1	1.13 ± 0.19	1.03 ± 0.1	1 ± 0.046	0.89 ± 0.089	0.689 ± 0.012	0.547 ± 0.0096
KPD BONE	1 ± 0.019	0.99 ± 0.067	1.01 ± 0.078	1.01 ± 0.093	1 ± 0.11	1.02 ± 0.11	0.948 ± 0.03	0.814 ± 0.037	0.943 ± 0.058	0.981 ± 0.032	1.09 ± 0.068	1.02 ± 0.067	1.07 ± 0.074	0.994 ± 0.083	0.907 ± 0.048	0.65 ± 0.021
SG32 HEADNECK	1.21 ± 0.15	1.38 ± 0.028	1.15 ± 0.14	1.13 ± 0.2	1.05 ± 0.15	1.12 ± 0.2	1.41 ± 0.35	1.15 ± 0.12	0.938 ± 0.1	1.18 ± 0.35	1.18 ± 0.2	0.933 ± 0.053	1.03 ± 0.25	0.995 ± 0.21	0.697 ± 0.16	0.344 ± 0.068
MDAMB157 BREAST	0.97 ± 0.13	1.03 ± 0.081	0.993 ± 0.071	1.06 ± 0.11	0.934 ± 0.045	0.873 ± 0.069	0.7437 ± 0.0042	0.621 ± 0.045	0.889 ± 0.089	0.896 ± 0.034	0.939 ± 0.04	0.973 ± 0.069	1.01 ± 0.065	0.951 ± 0.068	0.825 ± 0.024	0.321 ± 0.04
HCC1395 BREAST	0.937 ± 0.018	0.948 ± 0.079	0.932 ± 0.05	1.03 ± 0.058	1 ± 0.11	1.03 ± 0.045	0.999 ± 0.098	0.845 ± 0.075	1.1 ± 0.23	1.05 ± 0.16	1.31 ± 0.066	1.11 ± 0.11	1.25 ± 0.11	1.21 ± 0.042	1.03 ± 0.11	0.94 ± 0.1
SIHA CERVIX	1.07 ± 0.016	1.1 ± 0.04	1.12 ± 0.049	1.11 ± 0.085	1.2 ± 0.14	1.18 ± 0.05	1.04 ± 0.13	0.97 ± 0.035	0.978 ± 0.05	0.965 ± 0.018	1.07 ± 0.025	1.06 ± 0.13	1.2 ± 0.032	1.17 ± 0.13	1.15 ± 0.035	1 ± 0.14

From the supplement of paper PMC6045584
